Measurements: ChEMBL document CHEMBL1151379, “Chemical Constituents of Hyptis suaveolens. Part I. Spectral and Biological Studies on a Triterpene Acid” (1981)

Test system: Bipolaris oryzae
Assay: Antifungal activity against Helminthosporium oryzae at 1000 ppm
Format: functional

## C[C@H]1[C@H](C)CC[C@]2(C)CC[C@]3(C(=O)O)C(=CC[C@@H]4[C@@]5(C)CC[C@H](O)C(C)(C)[C@@H]5CC[C@]43C)[C@H]12
  Activity: <10%
